Structures can show the parent of a compound that is named as a salt.
Columns and labels:
[1] = test system: middle cerebral artery occlusion (MCAO) model; assay: Middle cerebral artery occlusion (MCAO) model, infarct area and volume by TTC stain; type: in vivo, male F-344 rats; details: 37 mg/kg IV 30 minutes and 24 hours after occlusion
Text: The model depends on a surgical procedure which is a modification of that originally proposed by A. Tamura, et al, "Focal Cerebral Ischemia in the Rat: Description of Technique and Early Neuropathological Consequences Following Middle Cerebral Artery Occlusion," J. Cerb. Blood Flow Metab. Vol. 1, pp. 53-60 and is similar to the methods described by Duverger and MacKenzie, "The Quantification of Cerebral Infarction Following Local Ischemia in the Rat: Influence of Strain, Arterial Pressure, Blood Glucose Concentration and Age", J. Cerb. Blood Flow Metab., Vol. 8, pp. 449-461 and S. Brint, et al, "Focal Brain Ischemia in the Rat: Methods for Reproducible Neocortical Infarction Using Tandem Occlusion of the Distal Middle Cerebral and Ipsilateral Common Carotid Arteries", J. Cereb. Blood Flow Metab., Vol. 8, pp. 474-485.
Generally, male F-344 rats weighing 300-350 g are anesthetized in 2% halothane in room air. The right femoral vein is cannulated and the tubing led subcutaneously to an exit behind the neck to allow intravenous (IV) drug injection. The left common carotid is permanently occluded with a 6-0 silk ligature. The left middle cerebral artery (MCA) is exposed through a 2-mm burr hole drilled 1-2 mm rostral to the fusion of the zygomatic arch with the squamosal bone. The dura is cut, the MCA lifted off the surface of the brain, electrocauterized, and cut. The wound margins are sutured shut and the anesthesia stopped.
The stable pharmaceutical composition is used for the assay or a solution for the assay may be prepared as follows: The hydrated fosphenytoin sodium (2.25 H₂O equivalent per mole) is dissolved in saline (pH = 7) at a concentration of 37 mg/mL and administered at 1 mL/kg. This dose of 37 mg/kg is equal to 30 mg/kg of the free base of fosphenytoin sodium. In vivo fosphenytoin sodium or the phenytoin prodrug undergoes a phosphate ester cleavage followed by a dehydroxymethylation to yield the free base of phenytoin. The dose administered is equivalent to 21 mg/kg of the free base of phenytoin.
This solution is then administered intravenously (IV) 30 minutes and 24 hours after occlusion to groups of 12 animals each. Forty-eight hours following occlusion rats are anesthetized with ketamine (150 mg/kg, IP), decapitated, the brains rapidly removed, and placed on ice. With the aid of a brain mold (Activational Systems), the brain is sliced into four 2-mm sections: one section anterior (ANT) to the MCA and three sections posterior (ANT-MED, POST-MED, and POST) to the MCA. The sections are then placed for 30 minutes in a 2% solution of 2,3,5 triphenyltetrazolium chloride (TTC) in saline. The brains are stored in 10% neutral buffered […] for analysis.
The brains are coded and the analysis is performed blinded. The area of infarction in each section is outlined with the aid of a morphometric analysis program (Bioquant IV, R & M Biometrics). The TTC stain is converted into a red marker in live mitochondria, while the infarcted area remains white. The total volume of infarction is calculated from the areas of the four sections assuming three truncated cones. The mean area for each section and the mean total volume are calculated; vehicle and drug treatment are compared using the Student's t-test.

[2] = Compatibility with standard intravenous solutions (precipitate formation); type: physicochemical; details: solutions and mixes with standard intravenous solutions (dextrose, saline, Ringers lactate)
Text: Supplementary active ingredients can also be incorporated into the formulations of formula I and its salts. The formula I and its salts, and particularly fosphenytoin sodium, can be and is formulated so as to be compatible with the commonly used intravenous fluids including solutions based on dextrose, […] or 0.9% saline as well as more complicated solutions including/such as Ringers lactate, and the like.

[3] = section posterior to the MCA, forty-eight hours following occlusion, mean ± standard deviation, N = 12

With `O=C1NC(c2ccccc2)(c2ccccc2)C(=O)N1COP(=O)(O)O` [Disodium Salt of Prophenytoin, 3-(hydroxymethyl)-5,5-diphenylhydantoin disodium phosphate ester] the “% Change, POST” value ([1]; area of infarction vs Vehicle, Probability 0.006) was -71.56%, the “% Change, POS-MED” value ([1]; area of infarction vs Vehicle, Probability 0.008) was -57.10% and the “% Change, ANT-MED” value ([1]; area of infarction vs Vehicle, Probability 0.049) was -22.82%. The “% Change, ANT” value ([1]; area of infarction vs Vehicle, Probability 0.160) was -18.58%, the “TOTAL VOLUME of infarction” value ([1]; calculated from the areas of the four sections, forty-eight hours following occlusion, mean ± standard deviation, N = 12) was 43.21 ±21.85 and the “area of infarction, ANT” value ([1]; section anterior to the MCA, forty-eight hours following occlusion, mean ± standard deviation, N = 12) was 9.03 ± 2.91. For the same compound, the “area of infarction, ANT-MED” value [1, 3] was 11.23 ± 2.95, the “area of infarction, POS-MED” value [1, 3] was 5.23 ± 5.44 and the “area of infarction, POST” value [1, 3] was 2.97 ± 4.39. The “% Change, TOTAL VOLUME” value ([1]; total volume of infarction vs Vehicle, Probability 0.010) was -42.07% and the “precipitate formation in standard intravenous solutions” value [2] was “do not form precipitates”.

— patent EP0427925A2, “Use of prophenytoin for preparing pharmaceutical preparations for treating stroke and cerebral ischemia” (WARNER-LAMBERT COMPANY, priority 1989, dated 1991)
